Source: patent US20050042244A1, “Method of controlling acarian and device for use in the same” (KURARAY CO LTD, priority 2002, published 2005)

How the values were obtained:
[1] = system: Dermatophagoides pteronyssinus; experiment: Repellence test method (invasion preventive method); assay type: in vivo; settings: 1.0 g/m^2; for number of Acarina, 1 day later: untreated control 65; for number of Acarina, 2 days later: untreated control 132; for number of Acarina, 3 days later: untreated control 140
Procedure: The repellence rates of the isomer of farnesylacetone and phytone under 1.0 g/m^2 conditions for a kind of Dermatophagoides pteronyssinus were determined by the repellence test method (invasion preventive method: “Processing Technique” vol. 33, No. 2, pp. 153-155 (1998) “titled: Acarina repellent-processed product repellence test basic manual” (Apareru Seihin-tou Hinshitsu Seinou Taisaku Kyougikai). The results are shown in Table 1 below. […]

Acarina = experiment: Repellence test with supplied gas containing 0.001 μg/L farnesylacetone in modified glass plate test apparatus; assay type: in vivo; settings: gas containing 0.001 μg/L farnesylacetone at 1 mL/min; 37±1° C., 75±5% Rh; 4 hr
Procedure: A 2L flask containing the gas containing 0.001 μg/L farnesylacetone prepared in the same manner as in Reference Example 1 was equipped with a Teflon® tube (inner diameter 2 mm) for discharging the gas containing farnesylacetone and a Teflon® tube for charging water into the container using a metering pump, whereby an apparatus to send out (supply) the gas containing farnesylacetone at 1 mL/min by introducing water into the flask at 1 mL/min was manufactured. […]
Then the test apparatus was placed in a room with constant temperature and humidity at 37±1° C., 75±5% Rh, and the apparatus was operated for 3 hr for filling the test section with the above-mentioned concentration of farnesylacetone, after which an Acarina medium containing 10000 live Acarina were inserted from the gap of the lid and left standing for 4 hr. Then, the number of Acarina that invaded into the feed for attraction in each part C of the test section side and the control section side was counted. […] The number of Acarina floating in the upper layer was counted. The repellence rate was determined by the following formula and found to be 80%. […]

[2] = system: Dermatophagoides pteronyssinus; experiment: Acarina repellence test by improved glass tube method; assay type: in vivo; settings: filter paper that absorbed farnesylacetone (0.1 g); 37±1° C., 75±5% Rh, 48 hr; gas concentration 5 μg/L
Text: The “glass tube method” known as one of the repellence tests for Acarina repellent-processed fibers was modified and used for a repellence test.
In the L-shaped glass tube in the test section was fixed filter paper with a two-sided tape inside the glass tube at part D, a test sample (filter paper that absorbed farnesylacetone (0.1 g)) was placed, and the glass tube opening on the D side was sealed with an airtight PARAFILM. Then, a medium containing 10,000 live Acarina (Dermatophagoides pteronyssinus) were placed in part A of the L-shaped glass Lube, and the glass end on the A side was sealed with a high density fabric capable of preventing passage of Acarina while maintaining air permeability. This test apparatus was stood still in a container maintained at 37±1° C., 75±5% Rh for 48 hr. […] The farnesylacetone concentration of the gas in part D was measured by gas chromatography. […]
Subsequently, the feed for attraction in part C was taken out, and the number of Acarina that invaded into the feed for attraction was counted by the following method. […] The number of Acarina floating in the upper layer was counted. […] The repellence rate of the test sample was determined by the following formula and found to be 98%. […]

human = experiment: Odor and effect on human of sampled gas containing farnesylacetone; settings: gas containing 20,000 μg/L farnesylacetone
Procedure: Farnesylacetone (1 mL) was placed in a 50 mL sample bottle, and a large magnetic stirring bar capable of rotating the air as well was placed therein. The bottle was placed neck-deep in a water bath at 60° C. with rotation, and heated for 1 hr to fill the inside of the sample bottle with farnesylacetone vapor. Thereafter, the gas in the sample bottle was taken by 5 mL with a gas tight syringe, and using gas chromatography with an FID detector, the concentration of farnesylacetone was measured by an absolute calibration method. […] Almost simultaneously, the gas (5 mL) in the sample bottle was taken again, a propeller was set in a 10 L beaker, the gas was added into the sealed beaker, the air in the beaker was stirred with the propeller for 10 min to dilute the gas 2,000-fold, whereby gas containing 0.01 μg/L farnesylacetone was obtained. […]

[3] = Measurement of farnesylacetone concentration in the air (gas chromatography, FID, absolute calibration); assay type: physicochemical; settings: for farnesylacetone concentration in gas of sample bottle: 1 hr
Procedure: measurement of farnesylacetone concentration in the air
Farnesylacetone (1 mL) was placed in a 50 mL sample bottle, and a large magnetic stirring bar capable of rotating the air as well was placed therein. The bottle was placed neck-deep in an oil bath at 130° C. with rotation, and heated for 1 hr to saturate the inside of the sample bottle with farnesylacetone vapor. Thereafter, the gas in the sample bottle was taken by 5 mL with a gas tight syringe, and using gas chromatography with an FID detector, the concentration of farnesylacetone was measured by the absolute calibration method.
Farnesylacetone (1 mL) was placed in a 50 mL sample bottle, and a large magnetic stirring bar capable of rotating the air as well was placed therein. The bottle was placed neck-deep in a water bath at 60° C. with rotation, and heated for 1 hr to fill the inside of the sample bottle with farnesylacetone vapor. Thereafter, the gas in the sample bottle was taken by 5 mL with a gas tight syringe, and using gas chromatography with an FID detector, the concentration of farnesylacetone was measured by an absolute calibration method. […] Almost simultaneously, the gas (5 mL) in the sample bottle was taken again, a propeller was set in a 10 L beaker, the gas was added into the sealed beaker, the air in the beaker was stirred with the propeller for 10 min to dilute the gas 2,000-fold, whereby gas containing 0.01 μg/L farnesylacetone was obtained. The diluted gas (200 mL) was sampled with a syringe, a propeller was set in a 2 L flask, the gas was added into the sealed flask, the air in the beaker was stirred with the propeller for 10 min to further dilute the gas 10-fold, whereby gas containing 0.001 μg/L farnesylacetone was obtained.

Dermatophagoides farinae = experiment: Acarina repellence test by improved invasion prevention method (coated lid, vapor); assay type: in vivo; settings: 25° C., 1 day
Procedure: The invasion prevention method was modified and a repellence test was performed.
As a lid to cover this box (4, 4′), two glass plates (length 5.5 cm, width 6 cm, thickness 1.3 mm) were prepared.
An ethanol solution of farnesylacetone (1%, 100 mg) was coated on the surface of one (test section side) of the two lids to cover the test box, and ethanol was air dried for 10 min. Then, a sample for Acarina attraction (50 mg) each was placed on both ends of the test box in the longitudinal direction, and the above-mentioned farnesylacetone-coated lid (4′) alone was placed, such that the surface coated with farnesylacetone faced the inside of the box. The box was placed in an incubator at 37° C. for 60 min until the farnesylacetone vapor filled the test section side of the test box. […] Thereafter, the test container was taken out, the number of Acarina that invaded into the feeds in the test section side and the control section side (50 and 1100, respectively, the rest of the Acarina fled) was counted. The repellence rate was determined by the following formula and found to be 95%. The concentration of farnesylacetone filled in the air at 37° C. was measured in the same manner as in Reference Example 1 and assumed to be 5 μg/L. Repellence rate (%)=(1− number of Acarina that invaded the test section/number of Acarina that invaded the control section)×100 […]

Structure (SMILES): CC(=O)CCC=C(C)CCC=C(C)CCC=C(C)C [cis-cis rich farnesylacetone, farnesylacetone]
- repellence rate, 1 day later [1]: 92.3%
- repellence rate, 2 days later [1]: 88.6%
- repellence rate, 3 days later [1]: 79.3%
- number of Acarina, 1 day later [1]: 5 Acarina
- number of Acarina, 2 days later [1]: 15 Acarina
- number of Acarina, 3 days later [1]: 29 Acarina

Structure (SMILES): CC(=O)CC/C=C(\C)CC/C=C(\C)CCC=C(C)C [farnesylacetone]
- Repellence rate (Acarina): 80%
- Repellence rate [2]: 98%
- odor and effect of sampled gas on human (human): had a strong odor, caused cough when inhaled in a large amount, and provoked uncomfortable feeling in human
- farnesylacetone concentration in gas of sample bottle ([3]; 60° C. water bath): 20 µg/L
- farnesylacetone concentration in gas of sample bottle ([3]; 130° C. oil bath, saturated vapor): 20,000 μg/L
- farnesylacetone concentration of the gas in part D ([3]; L-shaped glass tube of Example 1, after 48 hr at 37±1° C.): ~5 µg/L
- concentration of farnesylacetone filled in the air ([3]; at 37° C., test box of Example 2): ~5 ng/mL
- number of Acarina that invaded into the feed in the test section side (Dermatophagoides farinae; 50,000 released, control section side 1100): 50
- Repellence rate (Dermatophagoides farinae; lid coated with 1% ethanol solution (100 mg), vapor only, 5 μg/L): 95%

Structure (SMILES): CC(=O)CCCC(C)CCCC(C)CCCC(C)C (stereo not drawn) [phytone]
- repellence rate, 1 day later [1]: 89.2%
- repellence rate, 2 days later [1]: 90.9%
- repellence rate, 3 days later [1]: 83.6%
- number of Acarina, 1 day later [1]: 7 Acarina
- number of Acarina, 2 days later [1]: 12 Acarina
- number of Acarina, 3 days later [1]: 23 Acarina

Structure (SMILES): CC(=O)CCC=C(C)CCC=C(C)CCC=C(C)C [trans-trans farnesylacetone, farnesylacetone]
- repellence rate, 1 day later [1]: 87.7%
- repellence rate, 2 days later [1]: 90.2%
- repellence rate, 3 days later [1]: 82.9%
- number of Acarina, 1 day later [1]: 8 Acarina
- number of Acarina, 2 days later [1]: 13 Acarina
- number of Acarina, 3 days later [1]: 24 Acarina
